Measurements as given in PMC7756445, “A Novel Prodrug of a nNOS Inhibitor with Improved Pharmacokinetic Potential” (Chemmedchem, 2020).

Assays:
[1] = Chemical stability in nonenzymatic simulated gastric and intestinal fluids; type: physicochemical; details: 2 h
Description: (§1) The effects of gastrointestinal digestion are important parameters to be taken into consideration in the determination of bioavailability and bioactivity of new compounds. In particular, the luminal instability, due to the pH or enzymatic degradation, may compromise the transmucosal transport of the prodrug designed for permeability enhancement. Therefore, in this study the chemical stability of compound 2 was assessed to exclude any undesirable degradation at acid and physiological environments. Hydrochloric acid buffer (pH 2.0) as a nonenzymatic simulated gastric fluid (SGF), and phosphate buffer (pH 7.4) as nonenzymatic simulated intestinal fluid (SIF) were employed to evaluate the chemical stability. […] For chemical stability, a 0.01 M hydrochloric acid buffer (pH 1.3) and 0.01 M phosphate buffer (pH 7.4) were used. To assess enzymatic stability, the same hydrochloric buffer with and without pepsin (10 or 40 mg/mL) and phosphate buffer with and without pancreatin (10 or 40 mg/mL) were used. […] The mixture was vortexed and centrifuged at 2 °C and 10 000 rpm, Swing‐out Rotor, for 10 min, and the content of tested compound in the supernatant was analyzed by HPLC. Experiments were run in triplicate and the mean values of the rate constants were calculated.

mARC1 = target: T1, mARC1 (Homo sapiens, UniProt Q5VT66); experiment: Bioconversion with the mARC enzyme system (UV/Vis NADH assay, LC-MS); type: in vitro ADME; details: for conversion to reduced amidine 1 (LC-MS): mARC1 incubation
T1 sequence (Q5VT66 41-337 limits assumed): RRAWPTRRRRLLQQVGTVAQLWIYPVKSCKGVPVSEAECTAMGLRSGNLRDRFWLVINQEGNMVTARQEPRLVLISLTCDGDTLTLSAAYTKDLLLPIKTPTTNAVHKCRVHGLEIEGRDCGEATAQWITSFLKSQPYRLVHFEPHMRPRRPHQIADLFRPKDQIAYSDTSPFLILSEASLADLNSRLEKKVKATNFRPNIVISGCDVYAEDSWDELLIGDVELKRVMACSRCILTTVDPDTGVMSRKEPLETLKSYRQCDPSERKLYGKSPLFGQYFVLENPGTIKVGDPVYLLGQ
Description: (§2) The turnover rate of the amidoxime 2 was tested by an enzymatic NADH assay ^[38] with the mARC enzyme system in comparison to the model substrate benzamidoxime (BAO).
(§3) Due to this known in vivo studies and to other known prodrugs which are activated by mARC, for example, upamostat and ximelagatran, ^[38] it can be expected that the amidoxime prodrug 2 will also be converted extensively in vivo, and is thus a very suitable prodrug for the amidine 1 and making it orally available.
(§4) The assay was performed as previously described. ^[38] The proteins were dissolved in 20 mM of 2‐(N‐morpholino)ethanesulfonic acid (MES) buffer (pH 6.0) in disposable micro UV cuvettes. Each batch contained 15 μg human mARC, 7 μg B5 and 0.16 μg B5R. The enzymes were preincubated with the respective substrate (concentration 3 mM) for 3 min at 37 °C (total volume 240 μL). This mixture was measured as blank value and immediately mixed with 60 μL NADH (concentration 1 mM). The kinetics were measured over a period of 15 min at 37 °C, with absorption between 300 and 400 nm being measured at intervals of 30 sec. The measurement was stopped when the absorption stopped changing. The measurements were taken with a Varian Cary® 50 UV/Vis spectrophotometer from Agilent, which was tempered with a Varian Cary® PCB‐150 Peltier Controlled Cryobath. The samples were mixed with cold methanol and centrifuged for 5 min at 10 000 rpm, Swing‐out Rotor, and stored at −80 °C for further analysis.
(§5) A Bruker Amazon SL Ion Trap with upstream Agilent 1260 HPLC system was used with a Waters Xterra MS C8, 4.6×50 mm, 3.5 μm column, with Phenomenex, Security Guard C18 precolumn 3×4 mm. A gradient was employed with eluent A: 0.1 % acetic acid Suprapur, Merck, in Aqua Bidest, eluent B: CH3CN, Sigma Aldrich Chromasolv for gradient HPLC. The gradient was changed from 97 % A to 100 % B within 10 min. The injection volume was 1 μL and 10 μL respectively. The column temperature was 20 °C. Software of the HPLC: Hystar 3.2 SR 2. Software to control the mass spectrometer: Bruker Trap Control 7.0 Software to evaluate the data: Bruker Data Analysis 4.0.

mARC2 = target: T2, mARC2 (Homo sapiens, UniProt Q969Z3); experiment: as above; type: in vitro ADME; details: for conversion to reduced amidine 1 (LC-MS): mARC2 incubation
T2 sequence (Q969Z3 36-335): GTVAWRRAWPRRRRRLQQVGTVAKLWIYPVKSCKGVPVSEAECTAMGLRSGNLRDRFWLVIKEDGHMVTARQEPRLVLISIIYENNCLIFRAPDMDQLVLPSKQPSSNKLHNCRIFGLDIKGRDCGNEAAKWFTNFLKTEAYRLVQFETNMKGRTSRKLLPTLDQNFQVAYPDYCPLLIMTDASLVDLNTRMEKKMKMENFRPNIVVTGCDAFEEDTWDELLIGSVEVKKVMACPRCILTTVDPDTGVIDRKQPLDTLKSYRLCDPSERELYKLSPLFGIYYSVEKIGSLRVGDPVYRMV
Description: as §2, §3, §4, §5

pepsin, pancreatin = experiment: Enzymatic stability in simulated fluids with pepsin or pancreatin; type: in vitro ADME; details: 37 °C, 2 h
Description: as §1

chemical stability in nonenzymatic simulated gastric fluid (SGF) ([1]; hydrochloric acid buffer pH 2.0 (method: pH 1.3), 37 °C): stable
chemical stability in nonenzymatic simulated intestinal fluid (SIF) ([1]; phosphate buffer pH 7.4, 37 °C): stable
conversion to reduced amidine 1 (LC-MS) (mARC1): could be found
conversion to reduced amidine 1 (LC-MS) (mARC1; listed as amidoxime): completely converted
turnover rate (NADH consumption) compared with BAO (mARC1; mARC1 with B5 and B5R, substrate 3 mM, pH 6.0, 37 °C): clearly identical
conversion to reduced amidine 1 (LC-MS) (mARC2): could be found
conversion to reduced amidine 1 (LC-MS) (mARC2; listed as amidoxime): completely converted
turnover rate (NADH consumption) compared with BAO (mARC2; mARC2 with B5 and B5R, substrate 3 mM, pH 6.0, 37 °C): very similar
enzymatic stability in SGF with pepsin (pepsin, pancreatin; pH 1.3, pepsin 10 or 40 mg/mL): stable
enzymatic stability in SIF with pancreatin (pepsin, pancreatin; pH 7.4, pancreatin 10 or 40 mg/mL): stable
SMILES: C/C(=N\O)NC(c1ccccc1)c1ccccc1 [Compound 2, (1E)‐N‐(diphenylmethyl)‐N′‐hydroxyethanimidamide]
